Data as given in PubChem BioAssay AID330 (DTP/NCI, 2004).
Where “and” joins values, the source holds several entries; their conditions need not be identical. Equal values may be shown once. Toxic doses and inconclusive results are not listed. How the source made its calls: active means survival T/C of 150% or more; inactive means T/C below 125% in these data.

Tested on: P388 leukemia ip, CD2F1 mice, survival T/C
Experiment: NCI In Vivo Anticancer Drug Screen. Data for tumor model P388 Leukemia (intraperitoneal) in CD2F1 (CDF1) mice
Conditions: endpoint: median survival time, higher = longer survival
Method in brief: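 Mice carrying the transplanted tumor received test compound or vehicle. Survival was recorded in each group, and the value is the treated-group measurement divided by that of the vehicle-treated control group.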

[1] = dose: 100.0 mg/kg/injection, schedule: Q04DX003 (ip), vehicle: saline
[2] = dose: 400.0 mg/kg/injection, schedule: Q04DX003 (ip), vehicle: saline
[3] = dose: 50.0 mg/kg/injection, schedule: Q01DX005 (ip), vehicle: saline with Tween-80
[4] = dose: 100.0 mg/kg/injection, schedule: Q01DX005 (ip), vehicle: saline with Tween-80
[5] = dose: 100.0 mg/kg/injection, schedule: Q01DX009 (ip), vehicle: saline
[6] = dose: 200.0 mg/kg/injection, schedule: Q01DX009 (ip), vehicle: saline
[7] = dose: 50.0 mg/kg/injection, schedule: Q01DX009 (ip), vehicle: saline
[8] = dose: 50.0 mg/kg/injection, schedule: Q01DX005 (ip), vehicle: Klucel (hydroxypropylcellulose) (HPC)
[9] = dose: 100.0 mg/kg/injection, schedule: Q01DX005 (ip), vehicle: Klucel (hydroxypropylcellulose) (HPC)
[10] = dose: 200.0 mg/kg/injection, schedule: Q01DX005 (ip), vehicle: Klucel (hydroxypropylcellulose) (HPC)
[11] = dose: 50.0 mg/kg/injection, schedule: Q01DX005 (ip), vehicle: saline
[12] = dose: 200.0 mg/kg/injection, schedule: Q01DX005 (ip), vehicle: saline with Tween-80
[13] = dose: 100.0 mg/kg/injection, schedule: Q01DX001 (ip), vehicle: Klucel (hydroxypropylcellulose) (HPC)

Measured: T/C

CC(=O)Nc1cc2c(cc1Br)-c1ccccc1C2O (stereo not drawn)
inactive: dose: 0.63 mg/kg/injection, schedule: Q01DX009 (ip), vehicle: saline with Tween-80 100 % of control | dose: 1.25 mg/kg/injection, schedule: Q01DX009 (ip), vehicle: saline with Tween-80 109 % of control | dose: 2.5 mg/kg/injection, schedule: Q01DX009 (ip), vehicle: saline with Tween-80 109 % of control | dose: 5.0 mg/kg/injection, schedule: Q04DX003 (ip), vehicle: saline with Tween-80 90 % of control | dose: 10.0 mg/kg/injection, schedule: Q04DX003 (ip), vehicle: saline with Tween-80 104 % of control | dose: 20.0 mg/kg/injection, schedule: Q01DX009 (ip), vehicle: saline with Tween-80 90 % of control | dose: 20.0 mg/kg/injection, schedule: Q04DX003 (ip), vehicle: saline with Tween-80 100 % of control

NNC(=O)C(NC(=O)c1ccccc1)C(N)=O (stereo not drawn)
inactive: [1] 95 % of control | dose: 200.0 mg/kg/injection, schedule: Q04DX003 (ip), vehicle: saline 95 % of control | [2] 94 % of control

COc1ccc2c(Br)c(NC(C)=O)ccc2c1Br
inactive: dose: 25.0 mg/kg/injection, schedule: Q04DX003 (ip), vehicle: saline 100 % of control | dose: 50.0 mg/kg/injection, schedule: Q04DX003 (ip), vehicle: saline 96 % of control | [1] 98 % of control and 96 % of control | [2] 95 % of control

CCCCCCCCCCCC1=C(O)C(=O)C(Br)=C(O)C1=O
inactive: [3] 92 % of control | [4] 92 % of control

CC(=O)c1c(O)cc2c3c1OC(C)(C)C1CCC(C)(CC31)O2 (stereo not drawn)
inactive: dose: 6.25 mg/kg/injection, schedule: Q01DX009 (ip), vehicle: saline 105 % of control | dose: 12.5 mg/kg/injection, schedule: Q01DX009 (ip), vehicle: saline 105 % of control | dose: 25.0 mg/kg/injection, schedule: Q01DX009 (ip), vehicle: saline 104 % of control | [5] 89 % of control | [6] 93 % of control

CC1(C)OC2OC(COC(=O)c3ccccc3)C(N3OC4C=CC3CC4)C2O1 (stereo not drawn)
inactive: dose: 100.0 mg/kg/injection, schedule: Q04DX002 (ip), vehicle: Klucel (hydroxypropylcellulose) (HPC) 103 % of control | dose: 200.0 mg/kg/injection, schedule: Q04DX002 (ip), vehicle: Klucel (hydroxypropylcellulose) (HPC) 103 % of control | dose: 400.0 mg/kg/injection, schedule: Q04DX002 (ip), vehicle: Klucel (hydroxypropylcellulose) (HPC) 102 % of control

O=C1c2ccccc2-c2nnsc21
inactive: dose: 60.0 mg/kg/injection, schedule: Q01DX005 (ip), vehicle: Klucel (hydroxypropylcellulose) (HPC) 98 % of control | dose: 120.0 mg/kg/injection, schedule: Q01DX005 (ip), vehicle: Klucel (hydroxypropylcellulose) (HPC) 107 % of control | dose: 240.0 mg/kg/injection, schedule: Q01DX005 (ip), vehicle: Klucel (hydroxypropylcellulose) (HPC) 100 % of control

CC(Nc1ccc(Cl)cc1)S(=O)(=O)O (stereo not drawn)
inactive: [7] 106 % of control | [5] 100 % of control | [6] 106 % of control

CC1c2ccccc2NC(=O)N1N1CCOCC1 (stereo not drawn)
inactive: [8] 96 % of control | [9] 93 % of control | [10] 97 % of control

Clc1cc(Cl)nc(N2CCCCC2)n1
inactive: dose: 25.0 mg/kg/injection, schedule: Q04DX003 (ip), vehicle: Klucel (hydroxypropylcellulose) (HPC) 105 % of control | dose: 50.0 mg/kg/injection, schedule: Q04DX003 (ip), vehicle: Klucel (hydroxypropylcellulose) (HPC) 102 % of control | dose: 100.0 mg/kg/injection, schedule: Q04DX003 (ip), vehicle: Klucel (hydroxypropylcellulose) (HPC) 100 % of control | dose: 200.0 mg/kg/injection, schedule: Q04DX003 (ip), vehicle: Klucel (hydroxypropylcellulose) (HPC) 105 % of control

OC1CC2CCC(C1)N2 (stereo not drawn)
inactive: dose: 60.0 mg/kg/injection, schedule: Q01DX005 (ip), vehicle: saline 100 % of control | dose: 120.0 mg/kg/injection, schedule: Q01DX005 (ip), vehicle: saline 96 % of control

Cc1cccc(Cl)c1NC(=O)CCl
inactive: dose: 12.5 mg/kg/injection, schedule: Q01DX009 (ip), vehicle: Klucel (hydroxypropylcellulose) (HPC) 101 % of control | dose: 25.0 mg/kg/injection, schedule: Q01DX009 (ip), vehicle: Klucel (hydroxypropylcellulose) (HPC) 101 % of control | dose: 50.0 mg/kg/injection, schedule: Q01DX009 (ip), vehicle: Klucel (hydroxypropylcellulose) (HPC) 93 % of control | dose: 100.0 mg/kg/injection, schedule: Q01DX009 (ip), vehicle: Klucel (hydroxypropylcellulose) (HPC) 101 % of control

CCOC(=O)C(C)P(=O)(OC)OC (stereo not drawn)
inactive: [11] 100 % of control | dose: 100.0 mg/kg/injection, schedule: Q01DX005 (ip), vehicle: saline 98 % of control | dose: 200.0 mg/kg/injection, schedule: Q01DX005 (ip), vehicle: saline 103 % of control

Cc1ccc(N(C)c2cc(=O)n(C)c(=O)[nH]2)cc1C
inactive: [3] 94 % of control | [4] 103 % of control

COC(=O)c1cc(-c2ccc(N)cc2)c2c(=O)n(-c3ccccc3)[nH]c2n1
inactive: dose: 60.0 mg/kg/injection, schedule: Q01DX005 (ip), vehicle: saline with Tween-80 100 % of control | dose: 120.0 mg/kg/injection, schedule: Q01DX005 (ip), vehicle: saline with Tween-80 91 % of control | dose: 240.0 mg/kg/injection, schedule: Q01DX005 (ip), vehicle: saline with Tween-80 87 % of control

C/C(O)=C(/N=Nc1ccc(-c2nc3ccc(C)c(S(=O)(=O)O)c3s2)cc1)C(=O)Nc1ccccc1
inactive: dose: 6.25 mg/kg/injection, schedule: Q01DX009 (ip), vehicle: saline with Tween-80 104 % of control | dose: 12.5 mg/kg/injection, schedule: Q01DX009 (ip), vehicle: saline with Tween-80 95 % of control | dose: 25.0 mg/kg/injection, schedule: Q01DX009 (ip), vehicle: saline with Tween-80 96 % of control

Cc1ccc(Oc2ccc(C(=O)C(CN(C)C)CN(C)C)cc2)cc1
inactive: dose: 1.88 mg/kg/injection, schedule: Q01DX005 (ip), vehicle: saline 107 % of control | dose: 3.75 mg/kg/injection, schedule: Q01DX005 (ip), vehicle: saline 110 % of control | dose: 7.5 mg/kg/injection, schedule: Q01DX005 (ip), vehicle: saline 112 % of control and 121 % of control

CC(=O)OCC#CCN1CCOCC1
inactive: [11] 124 % of control | dose: 60.0 mg/kg/injection, schedule: Q01DX005 (ip), vehicle: suspension in saline 102 % of control | dose: 120.0 mg/kg/injection, schedule: Q01DX005 (ip), vehicle: suspension in saline 100 % of control

NC(=O)CC(NC(=O)OCC1c2ccccc2-c2ccccc21)C(=O)O (stereo not drawn)
inactive: dose: 12.5 mg/kg/injection, schedule: Q01DX005 (ip), vehicle: Klucel (hydroxypropylcellulose) (HPC) 92 % of control | dose: 25.0 mg/kg/injection, schedule: Q01DX005 (ip), vehicle: Klucel (hydroxypropylcellulose) (HPC) 100 % of control | [8] 100 % of control and 105 % of control

CC(C)CC1NC(=O)N(CCN(C)C)C1=O (stereo not drawn)
inactive: [3] 100 % of control | [4] 106 % of control | [12] 100 % of control

CN1CN=C(Sc2ccc(Cl)cc2[N+](=O)[O-])NC1
inactive: [7] 89 % of control | [5] 100 % of control | [6] 104 % of control

CC(=O)n1c(Cl)c(/C=N/Nc2ccccc2[N+](=O)[O-])c2ccccc21
inactive: dose: 25.0 mg/kg/injection, schedule: Q01DX001 (ip), vehicle: Klucel (hydroxypropylcellulose) (HPC) 91 % of control | dose: 50.0 mg/kg/injection, schedule: Q01DX001 (ip), vehicle: Klucel (hydroxypropylcellulose) (HPC) 99 % of control | [13] 87 % of control and 91 % of control

CCC(=O)n1c(Cl)c(/C=N/NC(N)=S)c2ccccc21
inactive: [13] 95 % of control | dose: 200.0 mg/kg/injection, schedule: Q01DX001 (ip), vehicle: Klucel (hydroxypropylcellulose) (HPC) 100 % of control | dose: 400.0 mg/kg/injection, schedule: Q01DX001 (ip), vehicle: Klucel (hydroxypropylcellulose) (HPC) 93 % of control

COc1cc2ccc(CC(=S)N3CCOCC3)cc2cc1OC
inactive: dose: 100.0 mg/kg/injection, schedule: Q01DX009 (ip), vehicle: saline with Tween-80 90 % of control | dose: 200.0 mg/kg/injection, schedule: Q01DX009 (ip), vehicle: saline with Tween-80 90 % of control

C/C=C/COc1ccccc1C=O
inactive: [7] 99 % of control | [5] 106 % of control | [6] 100 % of control

CC1=NCCN=C(C)C1[N+](=O)[O-]
inactive: [7] 91 % of control | [5] 87 % of control

Cc1cccc(Nc2nc(C)nc3[nH]c(CC(C)C)c(C)c23)c1
inactive: [8] 91 % of control | [9] 96 % of control | [10] 98 % of control

Nc1ccc(SSc2ccc(Nc3ccnc4cc(Cl)ccc34)cc2)cc1
inactive: [3] 92 % of control | [4] 93 % of control | [12] 91 % of control
